{"source": "paper PMC12419922", "about": "“Myristoylated Cathelicidin-DM Fused With ANG1-7: A Novel Self-Assembling Antimicrobial Peptide for the Treatment and Mechanism of Diabetic Infected Wounds” (Journal of Diabetes Research, 2025)", "key": {"[1]": {"system": "Human keratinocyte cells (HaCaTs)", "settings": "50 μg/mL (highest concentration), 24 h, CCK8", "description": "(§1) Human keratinocyte cells (HaCaTs) and human skin fibroblasts (HSFs) were seeded in 96-well plates at a density of 5000 cells per well. After overnight culture, different concentrations of AMP MYR-DM-ANG1-7 were added to the cells, and then, the cells were cultured for 24 h. Untreated cells were supplemented with fresh culture medium as the control group. Subsequently, 10% by volume of CCK8 solution (5 mg/mL) was added to each well.\n(§2) After incubation for 1 h, the absorbance in each well was measured at 450 nm using an M200 full-band microplate reader (Infinite M200 PRO, Switzerland). Finally, the cell viability was calculated relative to the control groups."}, "[2]": {"system": "human skin fibroblasts (HSFs)", "settings": "1.56 μg/mL (lowest concentration), 24 h, CCK8", "description": "as §1, §2"}}, "note": "Where no end group is shown, it is not given here. The star is where a group is joined. Myristoyl = CCCCCCCCCCCCCC(=O)*", "data": [{"substance": "Myristoyl-SSRRKPCKGWLCKLKLRGGYTLIGSATNLNRPTYVRAGGGDRVYIHP (cysteines drawn unpaired) [MYR-DM-ANG1-7]", "values": [{"measurement": "cell survival rate, HaCaT", "setting": "[1]", "value": 92.4, "unit": "%"}, {"measurement": "cell survival rate, HSF", "setting": "[2]", "value": 95.16, "unit": "%"}]}]}
